Patent US10772326B2 (priority 2014, dated 2020)
Where two headings read alike, the source gives them in different places.

Assays:
[1] = test system: Swingle rootstocks and sweet orange; experiment: Phytotoxicity of foliar spray or leaf painting on citrus; assay type: in vivo; settings: spray to run-off or leaf painting
Excerpt: To test the phytoxicity of cinnamaldehyde or carvacrol in 70% ethanol, and 70% ethanol alone on citrus plants, we applied 1% (w/v) and 10% (w/v) cinnamaldehyde or carvacrol (each dissolved in 70% ethanol) on Swingle rootstocks (˜6 inches to 1 foot tall) by spraying to the point of run-off of the spray and also sweet orange (˜3 foot tall) by painting one or both sides of a portion of the leaf surface. We also applied 70% ethanol as control in these two methods.

[2] = test system: L. crescens strain BT-1 (Lcr); assay type: cell-based, Liberibacter crescens; settings: 5 days; for inhibition of the growth of Lcr: 20 μl on 6 mm disc
[3] = test system: E. coli Stratagene strain “Solopack”; experiment: Disc test of essential oils on E. coli growth on LB agar; assay type: cell-based; settings: 20 μl undiluted on 6 mm disc, 24 hrs
Description: The essential oils cinnamadehyde (Aldrich, W228605; ≥98% purity), carvacrol (Aldrich, W224502; ≥98% purity) and geraniol (Aldrich, 163333; 98% purity) were purchased Sigma-Aldrich (St. Louis, Mo.). A single colony of E. coli Stratagene strain “Solopack” was inoculated in 5 ml of Luria Broth (LB) liquid medium with shaking at 37° C. overnight. Two hundred μl of the E. coli overnight cultures were placed on an LB agar plate, and spread evenly with glass beads. The bacterial culture was allowed to absorb into the LB medium. Within 30 min after absorption, 20 μl drops of the three essential oils (cinnamaldehyde, carvacrol or geraniol) were separately placed without dilution on 6 mm discs (Whatman, Cat No. 2017-006; GE healthcare Life Science) and the treated disks were placed on top of the plates with E. coli. The plates were then incubated for 24 hrs. […] Experiments were repeated, with the same results.

Swingle rootstocks = experiment: Phytotoxicity of soil drench on potted citrus; assay type: in vivo; settings: drench to run-off
Excerpt: To further test the phytoxicity of cinnamaldehyde or carvacrol in 70% ethanol, and 70% ethanol alone on citrus plants, we applied 1% and 10% cinnamaldehyde or carvacrol (each dissolved in 70% ethanol) on Swingle rootstocks (˜6 inches to 1 foot tall) by adding sufficient liquid to soil of potted citrus to the point of run-off of the drench. We also applied 70% ethanol as control in these two methods.

Las [4] = assay type: in vivo, Candidatus Liberibacter asiaticus; settings: 1% (w/v) in 70% ethanol, foliar spray to run-off; 1-2 weeks later and for several months; positive = Ct ≤ 35
Las [5] = settings: spray to run-off
Las [6] = settings: 1.5% (w/v) in 100% DMSO
[7] = 1% in 70% ethanol (carvacrol: 8 mg/ml (1%))

SMILES | phytotoxicity, foliar ([1]; 1% (w/v) in 70% ethanol) | inhibition of the growth of Lcr ([2]; 2 mg/ml in 70% ethanol) | inhibition of the growth of E. coli [3] | relative inhibition of the growth of E. coli (ranking) [3] | phytotoxicity, soil drench (Swingle rootstocks; [7]) | phytotoxicity, foliar ([1]; 10% w/v in 70% ethanol) | level down to which inhibitory to Lcr ([2]; two-fold serial dilutions in 70% ethanol, disc test) | Las qPCR tests after treatment (Las [4]) | PCR tests for presence of Las (Las [5]; 0.3% in 50% DMSO) | effect on the trees (defoliation) (Las [5]; 0.3% in 50% DMSO) | weekly qPCR tests for Las for the next nine months (Las [5]; 1.5% in 50% DMSO) | effect on the trees (defoliation) (Las [5]; 1.5% in 50% DMSO, 6-7 days later) | PCR tests for presence of Las in new shoots (Las [5]; 1.5% in 50% DMSO, about 3 weeks after defoliation) | phytotoxicity, soil drench (Swingle rootstocks; 10% w/v in 70% ethanol) | effect on the trees (defoliation) (Las [6]; 2 x 20 ml trunk injection, 6-7 days later) | PCR tests for presence of Las in new shoots (Las [6]; trunk injection) | weekly PCR tests for Las for the next 9 months (Las [6]; trunk injection) | inhibition of the growth of Lcr ([2]; 2 mg/ml to 0.125 mg/ml in 70% ethanol)
Cc1ccc(C(C)C)cc1O [carvacrol, reference compound] | highly phytotoxic | only slight inhibition | inhibitory | more inhibitory than cinnamaldehyde | highly phytotoxic | – | – | – | – | – | – | – | – | – | – | – | – | –
O=C/C=C/c1ccccc1 [cinnamaldehyde] | not at all phytotoxic | surprisingly strong inhibition | inhibitory | more inhibitory than geraniol | not at all phytotoxic | moderately phytotoxic | 1 mg/mL | qPCR positive | remained infected | appeared unaffected | remained completely negative | completely defoliated | completely Las negative | moderately phytotoxic | completely defoliated | completely negative | remained completely PCR negative | –
CC(C)=CCC/C(C)=C/CO [geraniol, reference compound] | – | – | inhibitory | – | – | – | – | – | – | – | – | – | – | – | – | – | – | not inhibitory
